Laboratory results taken from PMC2990587, “Central nervous system penetration and enhancement of temozolomide activity in childhood medulloblastoma models by poly(ADP-ribose) polymerase inhibitor AG-014699” (British Journal of Cancer, 2010).
“Also recorded” adds a separate entry of the source.

Columns and labels:
D384Med cells = assay: XTT growth inhibition, D384Med; format: cell-based, human
Method: Cell growth inhibition was estimated in exponentially growing D425Med, D283Med and D384Med cells in 96-well plates. Seeding densities of 1 × 10^3, 3 × 10^3 and 3 × 10^3 cells, respectively, ensured exponential growth for the duration of the experiment. At 24 h (D384Med) or 48 h (D283Med and D425Med) after seeding, cells were exposed to varying concentrations of temozolomide, as described in the Results, in the presence or absence of 0.4 μM AG-014699, a concentration previously shown to enhance temozolomide cytotoxicity in adult tumour cell lines ([Thomas et al, 2007]). After 3 days (D425Med and D384Med) or 5 days (D283Med) of culture (equivalent to approximately three cell divisions), the cell viability was quantified using an XTT cell proliferation kit assay (Roche, Mannheim, Germany), according to the manufacturer's instructions. Cell growth was expressed as a percentage in relation to DMSO or 0.4 μM AG-014699-alone controls. The concentration of temozolomide, alone or in combination with AG-014699, that inhibited growth by 50% (GI50) was calculated from computer-generated curves (GraphPad Software, San Diego, CA, USA). The potentiation factor50 (PF50) is defined as the ratio of […]. All data were from at least three independent experiments.

PARP-1 = PARP-1 (Homo sapiens, UniProt P09874); assay: PARP activity in D283Med xenograft homogenates after AG-014699 dosing; format: in vivo, mouse
Method: One or four daily doses of PARP inhibitor AG-014699 (1 mg kg^−1 intraperitoneally (i.p.)) were given to CD-1 nude mice bearing established D283Med xenografts. At 0.5, 2, 6 and 24 h after the initial or fourth daily dose of AG-014699, three animals per time point were bled by cardiac puncture under general anaesthesia, and then killed. Plasma was separated from the blood samples using standard methods and stored at −80°C. The brains and tumours were removed, snap frozen in liquid nitrogen and stored at −80°C before analysis. Blood, tumour and brain tissue were removed from three untreated control animals and processed in the same way.
PARP activity was determined in homogenates of subcutaneous D283Med xenografts and brain tissue (see above). Maximally stimulated PARP activity was measured in replicate samples (n⩾3) of a 1 : 1000 dilution of the homogenate as described for permeabilised D283Med cells (see above). Data were calculated as pmol PAR per mg protein by reference to the PAR standard curve and protein content of the sample and expressed as a percentage of the corresponding tissue from the saline-treated control animals. The mean PARP activity in xenograft and brain samples taken at each time point was expressed as a percentage of the mean PARP activity of control xenografts from untreated mice (n=3).

D425Med xenografts = assay: Tumour growth inhibition in vivo, D425Med xenografts; parameters: species or system mouse
Description: All of the in vivo experiments were reviewed and approved by the relevant institutional animal welfare committees, and performed according to national law. Female athymic nude mice (CD1 nu/nu; Charles River, Margate, UK) used for anti-tumour studies were maintained and handled in isolators under specific pathogen-free conditions. […], […] and […] (1 × 10^7 exponentially growing cells per mouse, harvested and implanted in growth media) xenografts were established by sub-cutaneous implantation into CD-1 nude mice. […] Treatment was initiated when sufficient number of mice had established tumours to allow randomisation into treatment groups: day 17 for […], day 26 for […] and day 32 for […]. […] For drug combinations, AG-014699 was administered immediately after administering temozolomide. […] Tumour growth delay (TGD) is defined as the time to RTV4 in drug-treated mice compared with the time to RTV4 in control (vehicle alone) mice. Median tumour volume is shown, rather than the mean, as this is generally accepted as the most statistically reliable representation of the average growth rate of tumours in a small group of mice, if a normal distribution of tumour volumes cannot be assumed. Tumour growth delay was calculated as: median time to RTV4 in treated group-median time to RTV4 in control group.

[1] = Toxicity (body weight loss) in tumour-bearing mice; format: in vivo, mouse
Method: CD-1 nude mice bearing palpable, established subcutaneous D425Med, D283Med and D384Med xenografts were treated with normal saline (control animals), temozolomide (68 mg kg^−1 per os (p.o.)) or AG-014699 (1 mg kg^−1 i.p.) alone or in combination, daily for 5 days (five mice per group). For drug combinations, AG-014699 was administered immediately after administering temozolomide. Tumour volumes, determined from two-dimensional calliper measurements and the equation a^2 × b/2 (where a is the […] of the tumour), were monitored for the experimental period (up to 100 days), and are presented for each group of mice as median relative tumour volume (RTV) values. Relative tumour volume 1 is the tumour volume on the initial day of treatment (day 0), and RTV4 is the tumour volume four times that on the initial day of treatment. Tumour growth delay (TGD) is defined as the time to RTV4 in drug-treated mice compared with the time to RTV4 in control (vehicle alone) mice. Median tumour volume is shown, rather than the mean, as this is generally accepted as the most statistically reliable representation of the average growth rate of tumours in a small group of mice, if a normal distribution of tumour volumes cannot be assumed. Tumour growth delay was calculated as: median time to RTV4 in treated group−median time to RTV4 in control group. Percentage enhancement was calculated as 100 × (TGD TMZ+AG-014699/TGD TMZ alone)−100 ([Calabrese et al, 2004]).

Chain of PARP-1 (P09874 whole entry): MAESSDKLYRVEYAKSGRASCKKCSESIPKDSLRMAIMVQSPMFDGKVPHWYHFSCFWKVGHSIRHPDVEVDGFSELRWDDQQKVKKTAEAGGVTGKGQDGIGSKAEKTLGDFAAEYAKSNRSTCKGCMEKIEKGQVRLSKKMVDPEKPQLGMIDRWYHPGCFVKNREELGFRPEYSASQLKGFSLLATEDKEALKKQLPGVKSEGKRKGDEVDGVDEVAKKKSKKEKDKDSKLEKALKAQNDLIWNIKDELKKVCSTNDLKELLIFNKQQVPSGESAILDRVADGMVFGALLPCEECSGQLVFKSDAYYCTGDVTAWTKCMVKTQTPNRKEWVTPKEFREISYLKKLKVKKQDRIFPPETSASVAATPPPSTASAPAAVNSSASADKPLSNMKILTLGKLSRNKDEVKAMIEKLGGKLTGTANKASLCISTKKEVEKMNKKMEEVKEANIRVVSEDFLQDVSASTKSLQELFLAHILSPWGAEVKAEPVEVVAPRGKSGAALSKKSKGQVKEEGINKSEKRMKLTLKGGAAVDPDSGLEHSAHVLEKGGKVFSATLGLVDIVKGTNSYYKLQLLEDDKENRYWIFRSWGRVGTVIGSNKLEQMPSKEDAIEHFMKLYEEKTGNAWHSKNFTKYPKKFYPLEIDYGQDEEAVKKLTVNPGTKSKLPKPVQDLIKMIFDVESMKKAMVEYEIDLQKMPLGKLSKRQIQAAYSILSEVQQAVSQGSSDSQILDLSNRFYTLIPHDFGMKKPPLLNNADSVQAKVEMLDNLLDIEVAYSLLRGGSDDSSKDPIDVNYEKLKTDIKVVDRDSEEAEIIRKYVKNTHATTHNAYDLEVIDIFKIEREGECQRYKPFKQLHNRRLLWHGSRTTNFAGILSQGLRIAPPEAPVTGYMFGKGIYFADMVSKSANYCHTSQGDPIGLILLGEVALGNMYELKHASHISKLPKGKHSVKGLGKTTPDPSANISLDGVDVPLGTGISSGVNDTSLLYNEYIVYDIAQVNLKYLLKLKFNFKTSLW

## CNCc1ccc(-c2[nH]c3cc(F)cc4c3c2CCNC4=O)cc1 [AG-014699]
D384Med cells; D384Med (MGMT+ MMR+), 0.4 μM AG-014699
  Sensitisation to temozolomide by AG-014699: > 3 fold
D384Med cells; D384Med, 0.4 μM, data not shown
  Growth inhibition by AG-014699 alone: not growth inhibitory
D384Med cells; D384Med, potentiation of temozolomide by 0.4 μM AG-014699
  PF50: 3.8±1
PARP-1; D283Med xenograft, 6 h post-injection, similar after first and fourth dose, 1 mg kg−1 i.p.
  Reduction of PARP activity in tumour (nadir): around 75%
PARP-1; abstract, time not stated
  Reduction of PARP activity in xenograft tissue: ≥ 75%
D425Med xenografts; D425Med-bearing mice, daily x5, TMZ 68 mg kg−1 p.o., AG-014699 1 mg kg−1 i.p.
  Median nadir body weight (% starting weight): 98 % starting weight
D425Med xenografts; D425Med, daily x5, TMZ 68 mg kg−1 p.o., AG-014699 1 mg kg−1 i.p.
  Median time to RTV4: 15.5 days
D425Med xenografts; D425Med, mice with regression/group, sustained for 100 days
  Complete regressions: 0/5
[1]; 1 mg kg−1 i.p. daily five times
  Toxicity of AG-014699 alone: not toxic; also recorded: did not cause any marked toxicity
[1]; daily x5, TMZ 68 mg kg−1 p.o., AG-014699 1 mg kg−1 i.p.
  Body weight loss: 1±1%
